# From US7799913B2, “Carbonylbenzoxazine compounds for enhancing glutamatergic synaptic responses” (Cortex Pharmaceuticals, Inc., priority 2001, dated 2010)
row,melting point,Structure (SMILES)
1,257 to 259 °C,"O=C(CN1COc2cc3c(cc2C1=O)OC1CCCN1C3=O)N1CCCC1 (racemic) [Example 34, (R,S)-3-(2-oxo-2-pyrrolidinylethyl)-2H,6aH-pyrrolidin[2″,1″-3′,2′]1,3-oxazino[5′,6′-4,5]benzo[e]1,3-oxazaperhydroine-4,10-dione]"
2,184 to 188 °C,"O=C1c2cc3c(cc2OCN1C1CCCC1)C(=O)N1CCCC1O3 (racemic) [Example 26, (R,S)-3-cyclopentyl-2H,6aH-pyrrolidino[2″,1″-3′,2′]1,3-oxazino[5′,6′-4,5]benzo[e]1,3-oxazaperhydroine-4,10-dione]"
3,161 to 162 °C,"COC(=O)CN1COc2cc3c(cc2C1=O)OC1CCCN1C3=O (racemic) [Example 33, (R,S)-methyl 2-(4,10-dioxo-2H,6aH-pyrrolidino[2″,1″-3′,2′]1,3-oxazino[5′,6′-4,5]benzo[e]1,3-oxazaperhydroin-3-yl)acetate]"

# The remaining lines, values behind:
row,Structure (SMILES),melting point
1,"O=C1c2cc3c(cc2OCN1CCCN1CCOCC1)C(=O)N1CCCC1O3 (racemic) [Example 32, (R,S)-3-(3-morpholin-4-ylpropyl)-2H,6aH-pyrrolidino [2″,1″-3′,2′]1,3-oxazino[5′,6′-4,5]benzo[e]1,3-oxazaperhydroine-4,10-dione]",153 to 155 °C
2,"O=C1NCOc2cc3c(cc21)OC1CCCN1C3=O (racemic) [Example 58, (R,S)-2H,3H,6aH-pyrrolidino[2″,1″-3′,2′]1,3-oxazino[5′,6′-4,5]benzo[e]1,3-oxazaperhydroine-4,10-dione]",270 to 275 °C (dec.)
3,"O=C1c2cc3c(cc2OCC1CO)C(=O)N1CCCC1O3 [Example 20, (R,S),(R,S)-3-(hydroxymethyl)-6aH-chromano[7,6-e]pyrrolidino[2,1-b]1,3-oxazine-4,10-dione]",189 to 190 °C
4,"O=C1c2cc3c(cc2OCN1CC(F)(F)F)C(=O)N1CCCC1O3 (racemic) [Example 29, (R,S)-3-(2,2,2-trifluoroethyl)-2H,6aH-pyrrolidino[2″,1″-3′,2′]1,3-oxazino[5′,6′-4,5]benzo[e]1,3-oxazaperhydroine-4,10-dione]",179 to 180 °C
5,"CCCN1COc2cc3c(cc2C1=O)OC1CCCN1C3=O (racemic) [Example 24, (R,S)-3-propyl-2H,6aH-pyrrolidino[2″,1″-3′,2′]1,3-oxazino[5′,6′-4,5]benzo[e]1,3-oxazaperhydroine-4,10-dione]",153 to 154 °C
6,"CCN1COc2cc3c(cc2C1=O)OC1CCCN1C3=O (racemic) [Example 23, (R,S)-3-ethyl-2H,6aH-pyrrolidino[2″,1″-3′,2′]1,3-oxazino[5′,6′-4,5]benzo[e]1,3-oxazaperhydroine-4,10-dione]",197 to 198 °C
7,"CC(C)N1COc2cc3c(cc2C1=O)OC1CCCN1C3=O (racemic) [Example 25, (R,S)-3-(methylethyl)-2H,6aH-pyrrolidino[2″,1″-3′,2′]1,3-oxazino[5′,6′-4,5]benzo[e]1,3-oxazaperhydroine-4,10-dione]",204 to 205 °C
8,"O=C1c2cc3c(cc2OCN1CCO)C(=O)N(CCO)CO3 [Example 59, 3,8-bis(2-hydroxyethyl)-2H,7H-1,3-oxazaperhydroino[5′,6′-4,5]benzo[e]1,3-oxazine-4,9-dione]",237 to 238 °C
